Source: paper PMC3448795 (Biochemistry, 2012)
Read-outs that look alike come from different tables or passages of the source. Peptide text beside a SMILES is read from it.

Key:
[1] = target: T1, human S100B (Homo sapiens, UniProt P04271); test: Isothermal titration calorimetry; type: binding
T1 sequence (P04271 2-92 limits assumed): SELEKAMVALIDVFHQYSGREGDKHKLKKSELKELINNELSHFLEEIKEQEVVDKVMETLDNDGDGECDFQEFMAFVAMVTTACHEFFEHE

[2] = target: T1, human S100B; test: NMR 1H-15N HSQC titration with LineShapeKin line shape analysis; type: binding; details: for Kon (Table 3) / Kon (Table 4) / Kon (Table 2): low salt; for Kon (Table 2): Kd from ITC
[3] = calculated from Kd and Koff of Table 3
[4] = calculated from Kd and Koff of Table 4
[5] = calculated from Kd and Koff, 35°C

| Kd [1] [µM] | Kon (Table 3) [2, 3] | Kon (Table 4) [2, 4] | Kon (Table 2) [2, 5] | kon ([2]; read-out: Kon (text, Table 2 analysis)) [M⁻¹ s⁻¹] | Kon, first peptide binding event ([2]; bounds from simulated Koff and ITC Kd1) | Kon, second peptide binding event ([2]; bounds from simulated Koff and ITC Kd2) | ΔCp, exp, high salt ([1]; slope of ΔHcal versus temperature, ITC, buffer plus 120 mM NaCl) [kJ·mol^-1 K^-1] | Kd ([2]; Kd, App (Table 4), high salt, LineShapeKin, NMR only, 35°C, from 2D matrix) [µM] | Kon (Table 3), high salt ([2]; calculated from Kd and Koff of Table 3, high salt) | Kon (Table 4), high salt ([2]; calculated from Kd and Koff of Table 4, high salt) | Kon (Table 2), high salt ([2]; calculated from Kd and Koff, 35°C, high salt) | koff ([2]; read-out: Koff (Table 3), high salt, LineShapeKin, NMR only, 35°C, high salt) [s⁻¹] | koff ([2]; read-out: Koff (Table 4), high salt, LineShapeKin, NMR only, 35°C, high salt, from 2D matrix) [s⁻¹] | kon ([2]; read-out: Kon (text, Table 3 analysis)) [M⁻¹ s⁻¹] | Structure (SMILES) |
| --- | --- | --- | --- | --- | --- | --- | --- | --- | --- | --- | --- | --- | --- | --- | --- |
| 0.5 ± 0.2 | 160 ± 70 1×10^7 M^-1 s^-1 | 100 ± 40 1×10^7 M^-1 s^-1 | 30 ± 11 1×10^7 M^-1 s^-1 | 2.8e+08 | – | – | – | – | – | – | – | – | – | – | CC(=O)N[C@@H](CCC(=O)O)C(=O)N[C@H](C(=O)N[C@@H](CC(C)C)C(=O)N[C@H](C(=O)N[C@@H](CCCNC(=N)N)C(=O)N1CCC[C@H]1C(=O)N[C@@H](CCCCN)C(=O)N1CCC[C@H]1C(=O)N[C@@H](CC(C)C)C(=O)N[C@@H](CC(C)C)C(=O)N[C@@H](CC(C)C)C(=O)N[C@@H](CCCCN)C(=O)N[C@@H](CC(C)C)C(=O)N[C@@H](CC(C)C)C(=O)N[C@@H](CCCCN)C(=O)N[C@@H](CO)C(=O)N[C@H](C(=O)NCC(=O)N[C@@H](C)C(=O)N[C@@H](Cc1ccc(O)cc1)C(N)=O)C(C)C)C(C)C)[C@@H](C)O [HDM2] (Ac-ETLVRPKPLLLKLLKSVGAY-NH2) |
| 0.07 ± 0.03 | 3 ± 1 1×10^7 M^-1 s^-1 | – | – | – | – | – | – | – | – | – | – | – | – | – | CC[C@H](C)[C@H](NC(=O)[C@H](CCCCN)NC(=O)[C@H](CC(C)C)NC(=O)[C@H](CC(C)C)NC(=O)[C@@H]1CCCN1C(=O)[C@H](CC(C)C)NC(=O)[C@H](CCCCN)NC(=O)[C@@H]1CCCN1C(=O)[C@H](CCCNC(=N)N)NC(=O)[C@@H](NC(=O)[C@H](CCC(N)=O)NC(=O)[C@H](CC(N)=O)NC(C)=O)C(C)C)C(=O)N[C@@H](CC(C)C)C(=O)N[C@@H](Cc1c[nH]cn1)C(=O)N[C@@H](C)C(=O)N[C@@H](C)C(=O)NCC(=O)N[C@@H](C)C(=O)N[C@@H](CCC(N)=O)C(=O)N[C@@H](Cc1ccc(O)cc1)C(N)=O [HDM4] (Ac-NQVRPKLPLLKILHAAGAQY-NH2) |
| – | – | – | – | – | 13-63 1×10^7 M^-1 s^-1 | 1-10 1×10^7 M^-1 s^-1 | – | – | – | – | – | – | – | – | CC(=O)N[C@@H](CCCCN)C(=O)N[C@@H](CCCNC(=N)N)C(=O)N[C@@H](CC(C)C)C(=O)N[C@@H](CCCNC(=N)N)C(=O)N[C@@H](CCCNC(=N)N)C(=O)N[C@@H](CO)C(=O)N[C@@H](C)C(=O)N[C@@H](Cc1c[nH]cn1)C(=O)N[C@@H](C)C(=O)N[C@@H](CCCNC(=N)N)C(=O)N[C@@H](CCCCN)C(=O)N[C@@H](CCC(=O)O)C(=O)N[C@H](C(=O)N[C@@H](CCC(=O)O)C(=O)N[C@@H](Cc1ccccc1)C(=O)N[C@@H](CC(C)C)C(=O)N[C@@H](CCCNC(=N)N)C(=O)N[C@@H](CC(C)C)C(=O)N[C@@H](CCCCN)C(=O)N[C@@H](CCCNC(=N)N)C(=O)N[C@H](C(=O)N[C@@H](CCCNC(=N)N)C(=O)N[C@@H](CC(C)C)C(=O)NCC(=O)N[C@@H](CC(C)C)C(=O)N[C@@H](CCC(=O)O)C(=O)N[C@@H](Cc1ccc(O)cc1)C(N)=O)[C@@H](C)O)[C@@H](C)O [NDR] (Ac-KRLRRSAHARKETEFLRLKRTRLGLEY-NH2) |
| 2 ± 1 | 80 ± 30 1×10^7 M^-1 s^-1 | 100 ± 40 1×10^7 M^-1 s^-1 | 40 ± 16 1×10^7 M^-1 s^-1 | – | – | – | -1.2 ± 0.3 | 10 ± 2 | 7.5 ± 1.5 1×10^7 M^-1 s^-1 | 10 ± 2 1×10^7 M^-1 s^-1 | 3 ± 1 1×10^7 M^-1 s^-1 | 750 ± 150 | 1000 ± 200 | 8e+08 | CSCC[C@H](NC(=O)[C@H](CC(C)C)NC(=O)[C@H](CCCCN)NC(=O)[C@H](CCCCN)NC(=O)[C@H](Cc1c[nH]cn1)NC(=O)[C@H](CCCNC(=N)N)NC(=O)[C@H](CO)NC(=O)[C@@H](NC(=O)[C@H](CO)NC(=O)[C@H](CCC(N)=O)NC(=O)CNC(=O)[C@H](CCCCN)NC(=O)[C@H](CCCCN)NC(=O)[C@H](CO)NC(=O)[C@H](CCCCN)NC(=O)[C@H](CC(C)C)NC(=O)[C@H](Cc1c[nH]cn1)NC(=O)[C@H](CO)NC(=O)[C@H](Cc1ccc(O)cc1)NC(C)=O)[C@@H](C)O)C(=O)N[C@@H](Cc1ccccc1)C(=O)N[C@@H](CCCCN)C(=O)N[C@H](C(=O)N[C@@H](CCC(=O)O)C(N)=O)[C@@H](C)O [p53] |
